Data: patent publication US20250109165A1, “CYCLOPHILIN INHIBITORS AND USES THEREOF” (The Broad Institute, Inc., priority 2022, published 2025)
“Also recorded” adds a separate entry of the source. Values belong to the compound of their own block, whether it stands above or below them.

Key:
cyclophilins = experiment: Prolyl-isomerase inhibition screen on cyclophilins and cyclophilin mutants; type: biochemical, human
Protocol: (§1) IC50 values were calculated to be the value at which 50% inhibition was achieved on each compound's non-linear regression fitted curve.

CypE [1] = biological target: T1, CypE (Homo sapiens, UniProt Q9UNP9); experiment: Chymotrypsin coupled prolyl-isomerase assay; type: biochemical; settings: for IC50: wild-type CypE, read-out: IC50^CypE
T1 construct: PPIE (UniProtKB Entry Q9UNP9: res 131-301); host or cells: E. coli BL21(DE3)
T1 sequence (Q9UNP9 131-301): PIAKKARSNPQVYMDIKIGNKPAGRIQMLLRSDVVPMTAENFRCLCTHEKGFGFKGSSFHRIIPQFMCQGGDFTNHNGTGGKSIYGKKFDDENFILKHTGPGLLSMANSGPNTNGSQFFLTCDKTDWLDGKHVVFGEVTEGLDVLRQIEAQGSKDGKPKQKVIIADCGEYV
Protocol: as §1

CypE [2] = biological target: T1, CypE; experiment: Competition anisotropy (fluorescence polarization) binding assay with A26-Fl; settings: for CypE binding in FP competition (in words): compared to C3A
Protocol: Competition anisotropy binding assay with A26-Fl: Adapted from previous work^54, into a flat-bottom black untreated 96 well plate (Corning), cyclophilin in assay buffer (25 mM HEPES pH 8.0, 100 mM NaCl, 0.01% Triton X-100) at a predetermined concentration from FIG. 27 was incubated with 0.5 nM A26-Fl for 10 minutes at room temperature. Competitor macrocycle was then added to each well and incubated for 24 hours. Final assay volume was 100 μL with 0.25% DMSO. Fluorescence anisotropy was then measured using a Tecan Spark® plate reader using 492 nm/523 nm excitation/emission settings. Raw fluorescence polarization data was normalized to protein+fluorescent probe and buffer+fluorescent probe and Ki values were calculated using one site-competitive binding equation with Prism 9, importing Kd values from A26-Fl (FIGS. 12A-12C).

CypD = biological target: T2, CypD (Homo sapiens, UniProt P30405); experiment: Chymotrypsin coupled prolyl-isomerase assay; type: biochemical
T2 construct: PPIF (UniProtKB Entry P30405: res 45-207); made in house; host or cells: E. coli BL21(DE3)
T2 sequence (P30405 45-207): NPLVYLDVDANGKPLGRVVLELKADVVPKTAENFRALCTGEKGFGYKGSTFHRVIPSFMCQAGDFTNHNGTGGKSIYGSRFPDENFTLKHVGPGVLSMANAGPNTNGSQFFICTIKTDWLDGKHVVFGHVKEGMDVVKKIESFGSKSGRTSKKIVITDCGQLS
Protocol: as §1

HeLa cells = experiment: Fluorescence microscopy on HeLa cells; type: cell-based, human; settings: Cy5 labeled compound 6 μM
Protocol: Fluorescence microscopy on Hela cells. Into 96 well black, clear bottom TC treated plates, cells were seeded in Dulbecco's Modified Eagle Medium (DMEM) supplemented with 10% fetal bovine serum 24 hours prior at a density where wells were ˜80% confluent at time of experiment. Media was removed and cells were then stained with 50 μL of mixture containing Cy5 labeled compound (6 μM) in Kreb's ringer solution HEPES buffered pH 7.2 (KRB), for 1 hour at 37° C. Then, 50 μL Hoechst 33342 (8 μM) and Mitotracker Green FM (0.1 μM) in KRB was added directly to wells containing cells and incubated for 15 minutes at 37° C. Media was removed and cells were washed two times with 100 μL KRB. Cells were then kept adherent to the wells in 100 μL KRB for imaging. Fluorescence microscopy was conducted on an Opera Phenix Plus High-Content Screening System, using Alexa 488, Alexa 647, and Hoescht 33342 channels. Images were analyzed using Harmony 4.9.

SMILES: NC(=O)[C@H]1CCNC(=O)/C=C/C(=O)N2CCC[C@](Cc3ccccc3)(C2)C(=O)N[C@H](Cc2ccc(-c3ccc(CC(C(=O)O)C(=O)O)cc3)cc2)C(=O)NCc2ccccc2CC(=O)N1 [*B52-A]
inhibition of cyclophilins tested (in words) (cyclophilins): no substantial inhibition activity; also recorded: did not inhibit any cyclophilin

SMILES: NC(=O)[C@H]1CCNC(=O)/C=C/C(=O)N2CCC[C@](Cc3ccccc3)(C2)C(=O)N[C@H](Cc2ccc(-c3ccc(C(CC(=O)O)CC(=O)O)cc3)cc2)C(=O)NCc2ccccc2CC(=O)N1 [*B53-A]
inhibition of cyclophilins tested (in words) (cyclophilins): no substantial inhibition activity; also recorded: did not inhibit any cyclophilin

SMILES: NCCOCCNC(=O)[C@@H]1CCNC(=O)/C=C/C(=O)N2CCC[C@](Cc3ccccc3)(C2)C(=O)N[C@@H](Cc2ccc(-c3ccccc3)cc2)C(=O)NCc2ccccc2CC(=O)N1 [Compound B2]
cyclophilin selectivity profile (in words) (cyclophilins): selectivity over cyclophilins with sterically occluded S2 pockets

SMILES: NCCOCCNC(=O)[C@@H]1CCNC(=O)/C=C/C(=O)N2CCC[C@](Cc3ccccc3)(C2)C(=O)N[C@@H](Cc2ccc(-c3ccc(CCC(=O)O)cc3)cc2)C(=O)NCc2ccccc2CC(=O)N1 [Compound B23]
cyclophilin selectivity profile (in words) (cyclophilins): selectivity over non-lysine-containing PPIL1, Cyp40, CypC, and PPWD1

SMILES: NCCOCCNC(=O)[C@@H]1CCNC(=O)/C=C/C(=O)N2CCC[C@](Cc3ccccc3)(C2)C(=O)N[C@@H](Cc2ccc(-c3ccc(C#CC(=O)O)cc3)cc2)C(=O)NCc2ccccc2CC(=O)N1 [Compound B25]
cyclophilin selectivity profile (in words) (cyclophilins): selectivity over non-lysine-containing PPIL1, Cyp40, CypC, and PPWD1

cyclophilin selectivity profile (in words) (cyclophilins): hampers the selectivity
inhibition of cyclophilins tested (in words) (cyclophilins): loss of potency
SMILES: N#CCc1ccc(-c2ccc(C[C@@H]3NC(=O)[C@]4(Cc5ccccc5)CCCN(C4)C(=O)/C=C/C(=O)NCC[C@@H](C(=O)NCCOCCN)NC(=O)Cc4ccccc4CNC3=O)cc2)cc1C(=O)O [Compound B51]

cyclophilin selectivity profile (in words) (cyclophilins): retain the same selectivity profile
SMILES: NC(=O)[C@@H]1CCNC(=O)/C=C/C(=O)N2CCC[C@](Cc3ccccc3)(C2)C(=O)N[C@@H](Cc2ccc(-c3ccc(CC(C(=O)O)C(=O)O)cc3)cc2)C(=O)NCc2ccccc2CC(=O)N1 [Compound B52-A]

cyclophilin selectivity profile (in words) (cyclophilins): retain the same selectivity profile
SMILES: NC(=O)[C@@H]1CCNC(=O)/C=C/C(=O)N2CCC[C@](Cc3ccccc3)(C2)C(=O)N[C@@H](Cc2ccc(-c3ccc(C(CC(=O)O)CC(=O)O)cc3)cc2)C(=O)NCc2ccccc2CC(=O)N1 [Compound B53-A]

SMILES: CC(=O)c1ccc(-c2ccc(C[C@@H]3NC(=O)[C@]4(Cc5ccccc5)CCCN(C4)C(=O)/C=C/C(=O)NCC[C@@H](C(N)=O)NC(=O)Cc4ccccc4CNC3=O)cc2)cc1B(O)O [Compound C1A]
CypE potency and selectivity in prolyl isomerase assay (in words) (CypE [1]): loss of potency and selectivity for CypE
IC50 (CypE [1]): 900 nM
CypE binding in FP competition (in words) (CypE [2]): attenuated binding to CypE; also recorded: decreased potency for CypE

SMILES: CC(=O)c1cc(-c2ccc(C[C@@H]3NC(=O)[C@]4(Cc5ccccc5)CCCN(C4)C(=O)/C=C/C(=O)NCC[C@@H](C(N)=O)NC(=O)Cc4ccccc4CNC3=O)cc2)ccc1B(O)O [Compound C2A]
CypE binding in FP competition (in words) (CypE [2]): attenuated binding to CypE; also recorded: decreased potency for CypE

SMILES: NC(=O)[C@@H]1CCNC(=O)/C=C/C(=O)N2CCC[C@](Cc3ccccc3)(C2)C(=O)N[C@@H](Cc2ccc(-c3cccc(B(O)O)c3)cc2)C(=O)NCc2ccccc2CC(=O)N1 [Compound C6A]
IC50 (CypE [1]): 4000 nM
decrease in potency relative to C3A (CypE [2]; FP competition with A26-Fl against CypE): 100 fold
CypE binding in FP competition (in words) (CypE [2]): attenuated inhibition of CypE

CypD prolyl-isomerase inhibition (in words) (CypD): does not inhibit CypD
SMILES: CC(=O)NCCNC(=O)CCCCCN1\C(=C/C=C/C=C/C2=[N+](C)c3ccccc3C2(C)C)C(C)(C)c2ccccc21 [Cy5-enAc, reference compound]
mitochondrial localization (overlap with Mitotracker Green) (HeLa cells): good mitochondrial localization
